Measured values taken from PubChem BioAssay (NCI).
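How tested: cells in 96-well plates exposed to compound for 48 hours at five concentrations. Here, GI50 denotes the concentration required for 50% inhibition of growth. TGI: total growth inhibition.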

Tests used:
Experiment in all cases: DTP human tumour cell line panel, 48 h
PC-3 prostate = system: PC-3 prostate
UACC-257 melanoma = system: UACC-257 melanoma
OVCAR-8 ovarian = system: OVCAR-8 ovarian
K-562 leukemia = system: K-562 leukemia
NCI-H23 lung = system: NCI-H23 lung
TK-10 renal = system: TK-10 renal
MALME-3M melanoma = system: MALME-3M melanoma
MOLT-4 leukemia = system: MOLT-4 leukemia
U251 CNS = system: U251 CNS
786-0 renal = system: 786-0 renal
SK-MEL-5 melanoma = system: SK-MEL-5 melanoma
IGROV1 ovarian = system: IGROV1 ovarian
HCT-116 colon = system: HCT-116 colon
KM12 colon = system: KM12 colon
NCI-H226 lung = system: NCI-H226 lung
HT29 colon = system: HT29 colon
SF-268 CNS = system: SF-268 CNS
SK-MEL-28 melanoma = system: SK-MEL-28 melanoma
CCRF-CEM leukemia = system: CCRF-CEM leukemia
HOP-62 NSCLC = system: HOP-62 NSCLC
SNB-19 CNS = system: SNB-19 CNS
HOP-92 NSCLC = system: HOP-92 NSCLC
SF-295 CNS = system: SF-295 CNS
OVCAR-4 ovarian = system: OVCAR-4 ovarian
UO-31 renal = system: UO-31 renal
RPMI-8226 leukemia = system: RPMI-8226 leukemia
A549 NSCLC = system: A549 NSCLC
NCI-H460 lung = system: NCI-H460 lung
MDA-MB-231 breast = system: MDA-MB-231 breast
SW-620 colon = system: SW-620 colon
OVCAR-3 ovarian = system: OVCAR-3 ovarian
NCI-H522 lung = system: NCI-H522 lung
SR leukemia = system: SR leukemia
MCF7 breast = system: MCF7 breast
SF-539 CNS = system: SF-539 CNS
HL-60(TB) leukemia = system: HL-60(TB) leukemia
SNB-75 CNS = system: SNB-75 CNS
HCC-2998 colon = system: HCC-2998 colon
HS 578T breast = system: HS 578T breast
CAKI-1 renal = system: CAKI-1 renal
RXF 393 renal = system: RXF 393 renal
OVCAR-5 ovarian = system: OVCAR-5 ovarian
A498 renal = system: A498 renal
EKVX NSCLC = system: EKVX NSCLC
ACHN renal = system: ACHN renal
LOX IMVI melanoma = system: LOX IMVI melanoma
M14 melanoma = system: M14 melanoma
SN12C renal = system: SN12C renal
T-47D breast = system: T-47D breast
BT-549 breast = system: BT-549 breast
HCT-15 colon = system: HCT-15 colon
DU-145 prostate = system: DU-145 prostate
NCI/ADR-RES ovarian = system: NCI/ADR-RES ovarian
MDA-MB-435 = system: MDA-MB-435
SK-OV-3 ovarian = system: SK-OV-3 ovarian
COLO 205 colon = system: COLO 205 colon
UACC-62 melanoma = system: UACC-62 melanoma
SK-MEL-2 melanoma = system: SK-MEL-2 melanoma

CC(=O)Oc1ccc2c(-c3ccccc3)c(Oc3ccc(Cl)cc3)c(=O)oc2c1
TGI (PC-3 prostate): 37.7 µM | TGI (UACC-257 melanoma): 37.8 µM | TGI (OVCAR-8 ovarian): 36.8 µM | TGI (K-562 leukemia): 31.6 µM | TGI (NCI-H23 lung): 44.6 µM | TGI (TK-10 renal): 26.3 µM | TGI (MALME-3M melanoma): 28.9 µM | TGI (MOLT-4 leukemia): 34.7 µM | TGI (U251 CNS): 16.3 µM | TGI (786-0 renal): 30 µM | TGI (SK-MEL-5 melanoma): 32.6 µM | TGI (IGROV1 ovarian): 29.4 µM | TGI (HCT-116 colon): 28 µM | TGI (KM12 colon): 27.5 µM | TGI (NCI-H226 lung): 32.5 µM | TGI (HT29 colon): 39.8 µM | TGI (SF-268 CNS): 22.6 µM | TGI (SK-MEL-28 melanoma): 31.6 µM | TGI (CCRF-CEM leukemia): 35.7 µM | TGI (HOP-62 NSCLC): 34.9 µM | TGI (SNB-19 CNS): 30 µM | TGI (HOP-92 NSCLC): 22.4 µM | TGI (SF-295 CNS): 32.4 µM | TGI (OVCAR-4 ovarian): 35.8 µM | TGI (UO-31 renal): 28.4 µM | TGI (RPMI-8226 leukemia): > 100 µM | TGI (A549 NSCLC): 27.6 µM | TGI (NCI-H460 lung): 27.9 µM | TGI (MDA-MB-231 breast): 32.8 µM | TGI (SW-620 colon): 39.4 µM | TGI (OVCAR-3 ovarian): 28.8 µM | TGI (NCI-H522 lung): 9.51 µM | TGI (SR leukemia): 84.4 µM | TGI (MCF7 breast): 39.8 µM | TGI (SF-539 CNS): 31.1 µM | TGI (HL-60(TB) leukemia): > 100 µM | TGI (SNB-75 CNS): 19.5 µM | TGI (HCC-2998 colon): 19.7 µM | TGI (HS 578T breast): 43.8 µM | TGI (CAKI-1 renal): 32.3 µM | TGI (RXF 393 renal): 33.2 µM | TGI (OVCAR-5 ovarian): 32.4 µM | TGI (A498 renal): 30.8 µM | TGI (EKVX NSCLC): 29 µM | TGI (ACHN renal): 30.5 µM | TGI (LOX IMVI melanoma): 36.7 µM | TGI (M14 melanoma): 37 µM | TGI (SN12C renal): 39.2 µM | TGI (T-47D breast): 21.2 µM | TGI (BT-549 breast): 32.9 µM | TGI (HCT-15 colon): 10 µM | TGI (DU-145 prostate): 27.4 µM

Cc1cccc2c1[nH]c(=O)c1c3ccccc3cn21
GI50 (PC-3 prostate): 3.9 µM | TGI (PC-3 prostate): 29.3 µM | GI50 (UACC-257 melanoma): 16.6 µM | TGI (UACC-257 melanoma): 94.4 µM | GI50 (OVCAR-8 ovarian): 3.57 µM | TGI (OVCAR-8 ovarian): > 100 µM | GI50 (NCI-H23 lung): 17.2 µM | TGI (NCI-H23 lung): 38.6 µM | GI50 (TK-10 renal): 26.8 µM | TGI (TK-10 renal): 86.2 µM | GI50 (MALME-3M melanoma): 8.23 µM | TGI (MALME-3M melanoma): 24.7 µM | GI50 (MOLT-4 leukemia): 1.81 µM | TGI (MOLT-4 leukemia): 5.56 µM | GI50 (U251 CNS): 6.57 µM | TGI (U251 CNS): 19.4 µM | GI50 (786-0 renal): 5.92 µM | TGI (786-0 renal): 32.2 µM | GI50 (SK-MEL-5 melanoma): 11.7 µM | TGI (SK-MEL-5 melanoma): 23.9 µM | GI50 (IGROV1 ovarian): 3.69 µM | TGI (IGROV1 ovarian): > 100 µM | GI50 (HCT-116 colon): 2.69 µM | TGI (HCT-116 colon): 11.7 µM | GI50 (KM12 colon): 3.38 µM | TGI (KM12 colon): 22.8 µM | GI50 (NCI-H226 lung): 3.25 µM | TGI (NCI-H226 lung): 27.6 µM | GI50 (HT29 colon): 2.16 µM | TGI (HT29 colon): 13.1 µM | GI50 (SF-268 CNS): 3.03 µM | TGI (SF-268 CNS): 8.49 µM | GI50 (SK-MEL-28 melanoma): 6.86 µM | TGI (SK-MEL-28 melanoma): > 100 µM | GI50 (CCRF-CEM leukemia): 1.2 µM | TGI (CCRF-CEM leukemia): 12.6 µM | GI50 (HOP-62 NSCLC): 3.58 µM | TGI (HOP-62 NSCLC): 15.2 µM | GI50 (SNB-19 CNS): 15.6 µM | TGI (SNB-19 CNS): 48 µM | GI50 (HOP-92 NSCLC): 3.97 µM | TGI (HOP-92 NSCLC): 32.2 µM | GI50 (SF-295 CNS): 2.64 µM | TGI (SF-295 CNS): 25.1 µM | GI50 (OVCAR-4 ovarian): 6.73 µM | TGI (OVCAR-4 ovarian): > 100 µM | GI50 (UO-31 renal): 5.66 µM | TGI (UO-31 renal): > 100 µM | GI50 (RPMI-8226 leukemia): 2 µM | TGI (RPMI-8226 leukemia): 7.15 µM | GI50 (A549 NSCLC): 4.98 µM | TGI (A549 NSCLC): > 100 µM | GI50 (NCI-H460 lung): 1.89 µM | GI50 (MDA-MB-231 breast): 2.42 µM | TGI (MDA-MB-231 breast): 17.5 µM | GI50 (SW-620 colon): 5.76 µM | TGI (SW-620 colon): 17.8 µM | GI50 (OVCAR-3 ovarian): 4.78 µM | TGI (OVCAR-3 ovarian): 28.2 µM | GI50 (NCI/ADR-RES ovarian): 12.1 µM | TGI (NCI/ADR-RES ovarian): 34.8 µM | GI50 (NCI-H522 lung): 6.52 µM | TGI (NCI-H522 lung): 64.1 µM | GI50 (SR leukemia): 1.54 µM | TGI (SR leukemia): 4.15 µM | TGI (MCF7 breast): 12.5 µM | GI50 (SF-539 CNS): 3.85 µM | TGI (SF-539 CNS): 15.8 µM | GI50 (MDA-MB-435): 3.14 µM | TGI (MDA-MB-435): 11.6 µM | GI50 (SNB-75 CNS): 30.7 µM | TGI (SNB-75 CNS): > 100 µM | GI50 (HCC-2998 colon): 4.6 µM | TGI (HCC-2998 colon): 16.3 µM | GI50 (HS 578T breast): 21.8 µM | TGI (HS 578T breast): 64.4 µM | GI50 (CAKI-1 renal): 2.19 µM | TGI (CAKI-1 renal): 8.75 µM | GI50 (RXF 393 renal): 9.19 µM | TGI (RXF 393 renal): 38.4 µM | GI50 (OVCAR-5 ovarian): 17.9 µM | TGI (OVCAR-5 ovarian): 65.4 µM | GI50 (A498 renal): 16.1 µM | TGI (A498 renal): 42.1 µM | GI50 (EKVX NSCLC): 5.61 µM | TGI (EKVX NSCLC): 44.6 µM | GI50 (SK-OV-3 ovarian): 27.5 µM | TGI (SK-OV-3 ovarian): > 100 µM | GI50 (ACHN renal): 4.08 µM | TGI (ACHN renal): 22.5 µM | GI50 (LOX IMVI melanoma): 6.22 µM | TGI (LOX IMVI melanoma): 18.4 µM | GI50 (M14 melanoma): 12.4 µM | TGI (M14 melanoma): 30.9 µM | GI50 (COLO 205 colon): 7.33 µM | TGI (COLO 205 colon): 34.8 µM | GI50 (SN12C renal): 1.81 µM | TGI (SN12C renal): 18.8 µM | GI50 (T-47D breast): 11.5 µM | TGI (T-47D breast): 48.5 µM | GI50 (UACC-62 melanoma): 6.87 µM | TGI (UACC-62 melanoma): 28.1 µM | GI50 (BT-549 breast): 12 µM | TGI (BT-549 breast): 59.2 µM | GI50 (HCT-15 colon): 5.25 µM | TGI (HCT-15 colon): 31.7 µM | GI50 (SK-MEL-2 melanoma): 14.4 µM | TGI (SK-MEL-2 melanoma): > 100 µM | GI50 (DU-145 prostate): 5.26 µM | TGI (DU-145 prostate): 17.6 µM
